Experimental findings from patent US5240925A (priority 1991, dated 1993) are described below.

Common to all, as to assay: whole plant or invertebrate
What all share (type): in vivo

In experiment [1] the test system is Pseudoperonospora cubensis. As to conditions: in Cucumis sativus, 168 h, read-out: percent disease control, CDM.
The test system of a further experiment is Piricularia oryzae. As to conditions: Pyricularia oryzae, 192 h, read-out: percent disease control, RB.
The test system of another experiment is Phytophthora infestans. As to conditions: in Solanum lycopersicum, 96 h, read-out: percent disease control, TLB.
In experiment [2] the test system is Puccinia recondita (f. sp. tritici Races PKB and PLD). As to conditions: 240 h, read-out: percent disease control, WLR.
The subject of experiment [3] is Erysiphe graminis (f. sp. tritici). As to conditions: Blumeria graminis, 192 h; read-out: percent disease control, WPM.
For experiment [4], the system named is Puccinia graminis (f. sp. tritici Race 15B-2). As to conditions: 240 h, read-out: percent disease control, WSR.

In the case of `N#CC(CC1CCCO1)(Cn1cncn1)c1ccccc1` (centres unmarked) [Example 1, 1-[2-Cyano-2-phenyl-3-(tetrahydrofuran-2-yl)propyl]-1,2,4-triazole], the pest or weed control at 225 g/ha amounted to 10% in experiment [1]; 100% with Piricularia oryzae; 5% with Phytophthora infestans; 100% in experiment [2]; 100% in experiment [3].
Regarding `N#CC(CCN1CCOCC1)(Cn1cncn1)c1ccc(Cl)cc1` (centres unmarked) [Example 2, 1-[2-(4-Chlorophenyl)-2-cyano-4-(4-morpholinyl)butyl]-1,2,4-triazole], the pest or weed control at 300 g/ha was found to be 0% in experiment [1]; 0% with Piricularia oryzae; 0% in the experiment with Phytophthora infestans; 50% in experiment [3]; 0% in experiment [4].
In the case of `CC1CN(CCCC(C#N)(Cn2cncn2)c2ccc(Cl)cc2)CC(C)O1` (centres unmarked) [Example 3, 1-[2-(4-Chlorophenyl)-2-cyano-5-(2,6-dimethyl-4-morpholinyl)pentyl]-1,2,4-triazole], the pest or weed control at 300 g/ha in experiment [1] came to 0%; with Piricularia oryzae it was 0%; with Phytophthora infestans, 0%; in experiment [3], 0%; in experiment [4], 50%.
Turning to `CC1CN(CCC(C#N)(Cn2cncn2)c2ccc(Cl)cc2)CC(C)O1` (centres unmarked) [Example 4, 1-[2-(4-Chlorophenyl)-2-cyano-4-(2,6-dimethyl-4-morpholinyl)butyl]-1,2,4-triazole], the pest or weed control at 300 g/ha in experiment [1] turned out to be 0%; with Piricularia oryzae it was 0%; in the experiment with Phytophthora infestans it was 0%; in experiment [3] it was 0%; in experiment [4], 100%.
`CC1CN(CCCCC(C#N)(Cn2cncn2)c2ccc(Cl)cc2)CC(C)O1` (centres unmarked) [Example 5, 1-[2-(4-Chlorophenyl)-2-cyano-6-(2,6-dimethyl-4-morpholinyl)hexyl]-1,2,4-triazole]: the pest or weed control at 300 g/ha in experiment [1] is 0%; in the experiment on Piricularia oryzae, 0%; in the experiment with Phytophthora infestans, 0%; in experiment [3] it was 0%; in experiment [4], 80%.
Turning to `CC1CN(CCCCCCCCCCCC(C#N)(Cn2cncn2)c2ccc(Cl)cc2)CC(C)O1` (centres unmarked) [Example 6, 1-[2-(4-Chlorophenyl)-2-cyano-13-(2,6-dimethyl-4-morpholinyl)tridecyl]-1,2,4-triazole], the pest or weed control at 300 g/ha in experiment [1] amounted to 0%; in the experiment with Piricularia oryzae, 0%; in the experiment on Phytophthora infestans, 0%; in experiment [3] it was 0%; in experiment [4], 80%.
`N#CC(Cc1cccnc1)(Cn1cncn1)c1ccc(Cl)cc1` (centres unmarked) [Example 7, 1-[2-(4-Chlorophenyl)-2-cyano-3-(3-pyridyl)propyl]-1,2,4-triazole]: the pest or weed control at 150 g/ha in the experiment with Piricularia oryzae was 0%; with Phytophthora infestans it was 0%; in experiment [2], 0%; in experiment [3], 85%.
In the case of `N#CC(CCc1cccs1)(Cn1cncn1)c1ccc(Cl)cc1` (centres unmarked) [Example 8, 1-[2-(4-Chlorophenyl)-2-cyano-4-(2-thienyl)butyl]-1,2,4-triazole], the pest or weed control at 150 g/ha amounted to 100% in experiment [1]; 0% in the experiment on Piricularia oryzae; 80% in the experiment with Phytophthora infestans; 95% in experiment [2]; 95% in experiment [3]; 95% in experiment [4].
For the compound `COc1ccccc1C(C#N)(Cc1ccccn1)Cn1cncn1` (centres unmarked) [Example 9, 1-[2-Cyano-2-(2-methoxyphenyl)-3-(2-pyridyl)propyl]-1,2,4-triazole], the pest or weed control at 150 g/ha with Piricularia oryzae was determined as 0%; in the experiment on Phytophthora infestans, 100%; in experiment [2], 0%; in experiment [3], 0%.
With `N#CC(CCCN1CCCCC1)(Cn1cncn1)c1ccc(Cl)cc1Cl` (centres unmarked) [Example 10, 1-[2-Cyano-2-(2,4-dichlorophenyl)-5-(1-piperidinyl)pentyl]-1,2,4-triazole], the pest or weed control at 300 g/ha with Piricularia oryzae was found to be 50%; in experiment [2] it was 25%; in experiment [3] it was 75%.
As to `CN1CCCC(CC(C#N)(Cn2cncn2)c2ccc(Cl)cc2Cl)C1` (centres unmarked) [Example 11, 1-[2-Cyano-2-(2,4-dichlorophenyl)-3-(1-methylpiperidin-3-yl)propyl]-1,2,4-triazole], the pest or weed control at 300 g/ha in experiment [1] came out at 50%; in the experiment on Piricularia oryzae, 0%; in the experiment with Phytophthora infestans, 0%; in experiment [2], 25%; in experiment [3] it was 95%.
Take `N#CC(Cc1ccco1)(Cn1cncn1)c1ccc(Cl)cc1` (centres unmarked) [Example 12, 1-[2-(4-Chlorophenyl)-2-cyano-3-(2-furyl)propyl]-1,2,4-triazole]: the pest or weed control at 150 g/ha in the experiment with Phytophthora infestans was 80%; in experiment [2], 0%; in experiment [3], 100%; in experiment [4] it was 50%.
Take `N#CC(Cc1cccs1)(Cn1cncn1)c1ccc(Cl)cc1` (centres unmarked) [Example 13, 1-[2-(4-Chlorophenyl)-2-cyano-3-(2-thienyl)propyl]-1,2,4-triazole]: the pest or weed control at 300 g/ha (in experiment [1]; in the experiment with Piricularia oryzae) was 0% in each case. In addition, the pest or weed control at 150 g/ha in the experiment on Phytophthora infestans turned out to be 0%; in experiment [2], 0%; in experiment [3], 100%; in experiment [4] it was 100%.
For the compound `COc1ccccc1C(C#N)(CC1CCCCO1)Cn1cncn1` (centres unmarked) [Example 14, 1-[2-Cyano-2-(2-methoxyphenyl)-3-(tetrahydropyran-2-yl)propyl]-1,2,4-triazole], the pest or weed control at 300 g/ha came out at 0% in experiment [1]; 0% in the experiment with Piricularia oryzae; 0% with Phytophthora infestans; 0% in experiment [2]; 99% in experiment [3].
Turning to `N#CC(CCc1ccccn1)(Cn1cncn1)c1ccccc1` (centres unmarked) [Example 15, 1-[2-Cyano-2-phenyl-4-(2-pyridyl)butyl]-1,2,4-triazole], the pest or weed control at 300 g/ha was determined as 0% in experiment [1], 85% with Phytophthora infestans, 0% in experiment [2] and 85% in experiment [3].
